Laboratory results reported in patent US6723741B2, “Benzimidazoles and benzothiazoles and uses thereof” (Synaptic Pharmaceutical Corporation, priority 1996, dated 2004).

Key:
[1] = molecular target: T1, human α2A adrenergic receptor (Homo sapiens, UniProt P08913); test: Agonist activity: inhibition of forskolin-stimulated cAMP synthesis; settings: for I.A (Intrinsic Activity) Alpha-2 A: maximum activity relative to maximum activity induced by norepinephrine, human α2A
T1 sequence (P08913 1-465): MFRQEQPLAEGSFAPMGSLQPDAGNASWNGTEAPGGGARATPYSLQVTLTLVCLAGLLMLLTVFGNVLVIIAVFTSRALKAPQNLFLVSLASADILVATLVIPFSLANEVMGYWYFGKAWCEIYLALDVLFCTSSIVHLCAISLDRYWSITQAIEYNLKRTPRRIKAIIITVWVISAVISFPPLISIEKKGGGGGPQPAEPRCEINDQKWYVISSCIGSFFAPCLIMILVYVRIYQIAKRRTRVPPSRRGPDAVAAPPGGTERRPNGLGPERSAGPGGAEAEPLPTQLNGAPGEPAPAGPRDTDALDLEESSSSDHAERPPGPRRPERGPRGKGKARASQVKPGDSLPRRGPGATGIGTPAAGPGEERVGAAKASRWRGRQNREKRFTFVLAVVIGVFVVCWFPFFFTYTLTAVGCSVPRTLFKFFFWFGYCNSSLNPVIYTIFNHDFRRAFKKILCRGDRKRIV

[2] = molecular target: T2, human α2C adrenergic receptor (Homo sapiens, UniProt P18825); test: Radioligand binding assay, [3H]rauwolscine competition
T2 construct: The entire coding region of α2C (1383 bp), including 2 bp of 5′ UT and 400 bp of 3′ UT; expressed in transfected cells
T2 sequence (P18825 1-462): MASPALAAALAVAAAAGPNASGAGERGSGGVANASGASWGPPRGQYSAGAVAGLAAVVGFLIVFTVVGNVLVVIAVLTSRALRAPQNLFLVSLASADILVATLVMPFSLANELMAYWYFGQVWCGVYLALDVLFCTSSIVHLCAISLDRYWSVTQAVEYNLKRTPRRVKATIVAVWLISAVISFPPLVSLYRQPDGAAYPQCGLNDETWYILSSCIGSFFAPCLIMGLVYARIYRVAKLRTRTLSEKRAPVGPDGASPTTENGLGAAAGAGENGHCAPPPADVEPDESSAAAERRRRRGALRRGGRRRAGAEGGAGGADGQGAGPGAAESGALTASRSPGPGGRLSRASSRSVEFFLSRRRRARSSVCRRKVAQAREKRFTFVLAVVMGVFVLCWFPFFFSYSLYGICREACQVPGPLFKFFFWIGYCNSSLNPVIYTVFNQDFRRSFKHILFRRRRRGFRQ

SMILES | EC50 [1] [nM] | I.A (Intrinsic Activity) Alpha-2 A [1] | Ki [2] [nM]
c1nc2ccc(NC3=NCCS3)cc2s1 [Example 15, 6-(2-Thiazolin-2-ylamino)benzothiazole] | 3090 | 0.58 | 
Brc1cc(NC2=NCCN2)cc2cc[nH]c12 [Example 2, 7-Bromo-5-(2-imidazolin-2-ylamino)indole] | 0.437 | 0.46 | 12.9
CC(=O)c1cc(NC2=NCCN2)cc2cc[nH]c12 [Example 6, 7-Acetyl-5-(2-imidazolin-2-ylamino)indole] |  |  | 117
c1nc2cc(NC3=NCCN3)ccc2s1 [Example 13, 5-(2-Imidazolin-2-ylamino)benzothiazole] | 12.3 | 0.98 | 20.4
c1nc2ccc(NC3=NCCN3)cc2s1 [Example 14, 6-(2-Imidazolin-2-ylamino)benzothiazole] |  | 0.51 | 
N#Cc1cc(NC2=NCCN2)cc2cc[nH]c12 [Example 5, 7-Cyano-5-(2-imidazolin-2-ylamino)indole] |  |  | 43.7
